Results as given in patent US20180339016A1 (priority 2015, published 2018).
Read-outs that look alike come from different tables or passages of the source.

Columns and labels:
[1] = tested on: E. coli ATCC 25922
[2] = tested on: Escherichia coli (ATCC 25922); settings: peptide alone; peptide concentration required to inhibit growth by 20% (so in the source)
Method: (§1) The N-terminus of the peptides were acetylated and the C-terminus was amidated. The kinked structure can rapidly reduce the alpha-helical content, thereby greatly reducing the toxicity of the peptide against host cells. In addition, because of the potential to show specificity for the Gram-negative bacterial membrane, Pro-mutants were prepared by site-directed mutagenesis. Using the prepared peptides, their MIC for the Gram-negative bacterium E. coli and the Gram-positive bacterium S. aureus and their hemolytic activity for host cells were examined (Table 1).
(§2) To measure the synergy between the membrane-activating peptides and the repositioning drug, a 10× compound was prepared, and then serially diluted ⅔-fold with distilled water. An MH broth (900 μl) was added to and mixed with the 10× compound (100 μl), and then 200 μL of the mixture was taken and added to a 96-well plate. E. coli cultured for one day was adjusted to 0.5 MCF using MCFarland, and diluted 10-fold, and then 10 μl of the dilution was added to each well of the plate (5×10^5 CFU/mL). After addition of the bacterial cells, plate was incubated at 37° C. for 18 hours, and then the OD value at UV-Vis (600 nm) was measured. Cell viability (%)=(OD600 of sample−OD600 of negative control)/(OD600 of positive control−OD600 of negative control)×100.

[3] = tested on: E. coli ATCC 25922; assay: Antibiotic interaction assay (Wimley), 2/3 broth microdilution: MIC alone, MIC of combination, FICI; assay type: cell-based
Method: Synergy was evaluated by an antibiotic interaction assay (Wimley, 2015) Using the method of Wimley (BBA, 2015, v. 1848(1), pp. 8-15), synergy between the membrane-activating peptide and an antibiotic was measured by an FICI value (FIG. 17). […] Thus, to accurately examine synergy, a ⅔ dilution method which observes MIC at denser concentration intervals is advantageous over a ½ dilution method in statistical terms. […] In the same manner, the MIC of an antibiotic or repositioning drug (second line) is measured. In the third line, the two compounds are mixed after putting half amount each, and the MIC thereof is measured.
A broth microdilution technique (⅔ dilution) was used together with an MH broth. E. coli treated with an antibiotic and the peptide was incubated in a 37° C. incubator for 18 hours.
as §2

[4] = tested on: Staphylococcus aureus (ATCC 29213); assay: MIC of peptide against S. aureus; assay type: cell-based; settings: peptide alone
Method: as §1

[5] = Table 13, Lys-Ala scanning library

Substance	FICI Against E. coli, Colistin & 1/2 MIC peptide [1, 5]	MIC [μM] Against E. coli [2]	FICI Against E. coli, Colistin & 1/2 MIC peptide ([1]; Table 15, Leu-Ala scanning)	FICI Against E. coli, Colistin & 1/4 MIC peptide ([1]; Table 15, Leu-Ala scanning)	MIC [μM] Against S. aureus [4]	other results
ALLKLLKKPLKLLK [KL-L9P/K1A]	0.71	–	–	–	–	–
Ac-KLLKALKKPLKLLK-NH2 [KL-L5AL9P]	–	18 µM	0.86	0.49	–	increase of FICI value with colistin when peptide changed from 1/4 MIC to 1/2 MIC [1]: 0.37
KALKLLKKPLKLLK [KL-L2AL9P]	–	40 µM	0.74	0.61	–	–
KLAKLLKKPLKLLK [KL-L3AL9P]	–	27 µM	0.70	0.55	–	–
KLLALLKKPLKLLK [KL-L9P/K4A]	0.79	–	–	–	–	–
KLLKLLAKPLKLLK [KL-L9P/K7A]	0.86	–	–	–	–	–
KLLKLLKAPLKLLK [KL-L9P/K8A]	0.97	–	–	–	–	–
KLLKLLKKDLKLLK [KL L9D]	–	20 µM	–	–	–	MIC of combination (μM): antibiotic (colistin) ([3]; colistin concentration in combination with labelled peptide): 0.09 µM; FICI of peptide with colistin ([3]; labelled peptide + colistin): 0.46; FICIPeptide ([3]; labelled peptide + colistin): 0.28; FICIcolistin / FICIantibiotic ([3]; labelled peptide + colistin): 0.18; FICI of peptide with simvastatin ([3]; labelled peptide + simvastatin): 0.61; FICIPeptide ([3]; labelled peptide + simvastatin): 0.5; FICIsimvastatin ([3]; labelled peptide + simvastatin): 0.11; MIC of peptide ([3]; peptide alone): 18 µM; MIC of combination (μM): peptide ([3]; peptide concentration in combination with colistin): 5 µM; MIC of combination (μM): peptide ([3]; peptide concentration in combination with simvastatin): 9 µM; MIC of combination (μM): simvastatin ([3]; simvastatin concentration in combination with labelled peptide): 83.33 µM
KLLKLLKKLLKLLK	–	20 µM	–	–	20 µM	–
KLLKLLKKLLKLPK [KL-L13P]	–	5 µM	–	–	10 µM	–
KLLKLLKKLLKPLK [KL-L12P]	–	2.5 µM	–	–	20 µM	–
KLLKLLKKLPKLLK [KL-L10P]	–	2.5 µM	–	–	20 µM	–
KLLKLLKKPAKLLK [KL-L9PL10A]	–	40 µM	0.80	0.49	–	increase of FICI value with colistin when peptide changed from 1/4 MIC to 1/2 MIC [1]: 0.31
KLLKLLKKPLALLK [KL-L9P/K11A]	1.25	–	–	–	–	–
KLLKLLKKPLKALK [KL-L9PL12A]	–	40 µM	0.74	0.61	–	–
KLLKLLKKPLKLAK [KL-L9PL13A]	–	40 µM	0.80	0.51	–	increase of FICI value with colistin when peptide changed from 1/4 MIC to 1/2 MIC [1]: 0.29
KLLKLLKKPLKLLA [KL-L9P/K14A]	0.66	–	–	–	–	–
KLLKLLKPLLKLLK [KL-K8P]	–	2.5 µM	–	–	5.0 µM	–
KLLKLLPKLLKLLK [KL-K7P]	–	2.5 µM	–	–	5.0 µM	–
KLLKLPKKLLKLLK [KL-L6P]	–	10 µM	–	–	>40 µM	Fractional Inhibitory Concentration Index (FICI), Colistin & 1 μM peptide ([1]; Table 4): 0.83, Synergism; MIC (μM) against E. coli ATCC 25922, Peptide alone ([1]; Table 4, bacterial growth <10% of control): 3 µM
